The values that follow come from publication PMC2939023, “Attenuated T Cell Responses to a High-Potency Ligand In Vivo” (PLoS Biology, 2010).

Data set [1] concerns 5C.C7 RAG2−/− lymphocytes. In kind it is cell-based, mouse. As to conditions: 3 h. The procedure:
Cells were cultured in a 37°C humidified chamber with 5% C0_2 in complete RPMI1640 (supplemented with 10% FCS, […], 100 U/mL penicillin and streptomycin, 2 µM 2-mercaptoethanol). Single-cell suspensions were prepared from lymph nodes harvested from 5C.C7 RAG2-deficient mice (routinely >90% Vα11+Vβ3+ by flow cytometry) and stimulated in triplicate in 96-well round-bottom plates with irradiated (2,000 rad) B10.A splenocytes and the indicated peptides for 60 h. Proliferation was monitored by the addition of ^3H-methyl-thymidine (1 µCi/well). Cells were harvested onto glass-fiber filters using a Tomtec harvester, and filters were counted using a MicroBeta scintillation counter (Perkin-Elmer).

The next data set deals with 5C.C7 T cells. The experiment in a line: In vivo antigen persistence (division of later transferred 5C.C7 T cells). On the set-up: species or system mouse. As to conditions: peptide injected 4, 2, 1, 0 wk before transfer; division at 48 h; in words. The source says: We addressed potential differential in vivo antigen persistence by injecting MCC or K5 peptide at various times prior to transfer of CFSE-labeled 5C.C7 T cells (Figure S7). In this experiment, the extent of division of the transferred T cells serves as a readout of amount of antigen present. […] We then considered the possibility that the blunted responses were occurring because the amount of K5 pMHC complexes was limiting in vivo. In order to directly examine the stimulatory function of in vivo–pulsed APCs, we used irradiated splenic DCs isolated from mice immunized with the different peptides to activate naïve 5C.C7 T cells in vitro, without the addition of exogenous peptide (Figure 2B,C).
Supplementary file pbio.1000481.s007.eps: Figure S7 MCC and K5 peptides persist equally in vivo. B10.A mice were immunized with the indicated peptides at 4, 2, 1, and 0 wk before adoptive transfer of CFSE-labeled 5C.C7 T cells. 5C.C7 T cell division was analyzed at 48 h after transfer as a measure of peptide antigen persistence over time. All histograms are gated on CD4^+CD45.1^+ 5C.C7 T cells. Data shown are representative of two mice per condition and two experiments. (0.99 MB EPS) Click here for additional data file.

Another data set deals with OT-1 TCR. As to conditions: OT-1 TCR ligands, Listeria monocytogenes; in words; ref [25]; cited from earlier work. The source says:
The reason we observed attenuation at the high end of the ligand potency spectrum may be because we were able to examine T cell responses to a superagonist peptide, which possibly exceeds a ligand potency threshold at which T cell attenuation is observed. Attempts to find other strong 5C.C7 TCR ligands, which would facilitate examination o ...

Entries after “also recorded” stand apart in the source; their conditions may differ. Where no end group is shown, it is not given here.

What is called EC50 is the concentration needed to bring the measured effect to its halfway point. Low readings indicate an effect from little substance, high ones a need for much substance. ANERADLIAYFKAATKF [K5] gave an EC50 in data set [1] of 17.5 nM. Also, in the data set on 5C.C7 T cells, the “In vivo peptide antigen persistence” value was “persist equally and for a few weeks in vivo”.
In data set [1], ANERADLIAYLKQASK [102S] registered an EC50 of 160 nM.
In turn, “ANERADLIAYLKQATK [MCC, moth cytochrome c (MCC) peptide]” displayed a concentration for a half-maximal effect (EC50) in data set [1] of 37.8 nM. For the same sequence, in the data set on 5C.C7 T cells, the “In vivo peptide antigen persistence” value is “persist equally and for a few weeks in vivo”.
Regarding SIINFEKL [natural OT-1 TCR ligand], the “Potency of T cell responses in vitro and in vivo” value with OT-1 TCR was “induced the most robust response; also recorded: exhibited the most potent responses in vitro and in vivo”.
For the sequence ANERADLIAYPKAATKF [K3], in data set [1], the EC50 stood at 24.9 nM.
